Laboratory results reported in PubChem BioAssay (NCI).
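Five concentrations, 48 hours, 96-well plates. GI50: concentration for 50% inhibition of growth. At the TGI there is no net growth.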

Columns and labels:
Experiment in all cases: NCI-60 cell line screen, 48 h
ACHN renal = test system: ACHN renal
HCT-116 colon = test system: HCT-116 colon
HOP-62 NSCLC = test system: HOP-62 NSCLC
IGROV1 ovarian = test system: IGROV1 ovarian
NCI-H460 lung = test system: NCI-H460 lung
RXF 393 renal = test system: RXF 393 renal
SK-MEL-5 melanoma = test system: SK-MEL-5 melanoma
SK-OV-3 ovarian = test system: SK-OV-3 ovarian
SNB-75 CNS = test system: SNB-75 CNS
SR leukemia = test system: SR leukemia

Row | Compound | TGI (ACHN renal) | TGI (HCT-116 colon) | TGI (HOP-62 NSCLC) | TGI (IGROV1 ovarian) | TGI (NCI-H460 lung) | TGI (RXF 393 renal) | TGI (SK-MEL-5 melanoma) | TGI (SK-OV-3 ovarian) | TGI (SNB-75 CNS) | GI50 (ACHN renal) | GI50 (HCT-116 colon) | GI50 (HOP-62 NSCLC) | GI50 (IGROV1 ovarian) | GI50 (NCI-H460 lung) | GI50 (SK-MEL-5 melanoma) | GI50 (SK-OV-3 ovarian) | GI50 (SNB-75 CNS) | GI50 (SR leukemia) | TGI (SR leukemia) | GI50 (RXF 393 renal)
1 | c1cncc(C(Nc2cccc3cccnc23)Nc2cccc3cccnc23)c1 | > 100 µM | > 100 µM | > 100 µM | > 100 µM | > 100 µM | > 100 µM | > 100 µM | > 100 µM | > 100 µM | – | – | – | – | – | – | – | – | – | – | –
2 | O=C(CNC(=O)c1cccc2ccccc12)Nc1ccccc1Oc1ccccc1 | > 10 µM | > 10 µM | > 10 µM | > 10 µM | > 10 µM | – | 4.1 µM | 4.34 µM | > 10 µM | 0.833 µM | 0.322 µM | 0.354 µM | 0.91 µM | 0.333 µM | 0.262 µM | 0.398 µM | 0.231 µM | 0.0825 µM | > 10 µM | –
3 | NC(=NC1CCCCCC1)c1ccc(N2CCN(c3ccc(C(N)=NC4CCCCCC4)cc3)CC2)cc1 | > 50 µM | 48.8 µM | 22.6 µM | – | 16.8 µM | 35.6 µM | 6.76 µM | 44.9 µM | – | 46.4 µM | 10.2 µM | 8.48 µM | – | 3.65 µM | 1.33 µM | 15.7 µM | – | 6.64 µM | 19.8 µM | 9.99 µM
4 | CCS(=O)(=O)c1ccc(OC)c(Nc2nccc(N(C)c3ccc4c(C)[nH]nc4c3)n2)c1 | > 24.1 µM | > 25 µM | > 25 µM | 16.5 µM | > 25 µM | 7.81 µM | 8.38 µM | 17.8 µM | 8.38 µM | 5.95 µM | 8.69 µM | 6.72 µM | 3.97 µM | 8.67 µM | 4 µM | 5.03 µM | 2.94 µM | – | – | 2.7 µM
5 | Cn1c2ccc([N+](=O)[O-])cc2c(=O)c2c(O)cc(O)cc21 | > 100 µM | – | – | 45.3 µM | > 100 µM | 52 µM | > 100 µM | – | 34.7 µM | – | – | – | – | – | – | – | – | – | > 100 µM | –
6 | CCOC(=O)C#Cc1ccc(C#CC(=O)OCC)cc1 | > 21.3 µM | 11.2 µM | > 29.3 µM | > 100 µM | > 46.8 µM | 16.6 µM | > 27.4 µM | 84.2 µM | 0.609 µM | – | – | – | – | – | – | – | – | – | – | –
7 | Fc1ccc(-c2nnc3sc(-c4cccc(Cl)c4)nn23)cc1Cl | > 100 µM | > 100 µM | > 100 µM | > 100 µM | > 100 µM | > 100 µM | > 100 µM | > 100 µM | > 100 µM | > 100 µM | > 100 µM | > 100 µM | > 100 µM | > 100 µM | > 100 µM | > 100 µM | 44.4 µM | – | – | 39.5 µM
8 | CN(C)c1ccc(/C=C2\N=C(c3ccc(N)cc3)OC2=O)cc1 | > 100 µM | – | > 100 µM | > 100 µM | > 100 µM | – | > 100 µM | > 100 µM | > 100 µM | – | – | – | – | – | – | – | – | – | – | –
9 | Cc1cc(N/N=C/c2nc(-c3ccccc3)oc2C)c2cc(Cl)ccc2n1 | 3.14 µM | 3.39 µM | 3.66 µM | 3.32 µM | 3.61 µM | 3.42 µM | 3.2 µM | 3.29 µM | 3.34 µM | 1.74 µM | 1.82 µM | 1.85 µM | 1.68 µM | 1.88 µM | 1.76 µM | 1.75 µM | 1.63 µM | – | – | 1.7 µM
10 | Cc1nn2c(/C=C3/C(=O)Nc4ccccc43)c(-c3ccc(Cl)cc3)nc2s1 | 20 µM | – | > 50 µM | > 50 µM | > 50 µM | 42.8 µM | > 50 µM | – | – | 9.86 µM | – | 22.4 µM | 39.1 µM | 22.1 µM | 26.3 µM | – | – | 13.8 µM | > 50 µM | 14.1 µM
11 | Cc1cc(S(=O)(=O)NC#N)c(S/C(=N\Nc2ccc([N+](=O)[O-])cc2)c2ccccc2)cc1Cl | 41.5 µM | 30.6 µM | 32.3 µM | 39.3 µM | 36.3 µM | 48.9 µM | 35.7 µM | > 100 µM | > 100 µM | 18 µM | 13.8 µM | 17.2 µM | 17.9 µM | 18.7 µM | 19.3 µM | > 100 µM | 20.4 µM | – | – | 23.4 µM
12 | COC[C@H]1OC(=O)c2coc3c2[C@@]1(C)C1=C(C3=O)[C@@H]2CCC(=O)[C@@]2(C)C[C@H]1OC(C)=O | > 100 µM | > 100 µM | > 100 µM | 19.3 µM | > 100 µM | 3.07 µM | 61 µM | 23.5 µM | – | – | – | – | – | – | – | 2.22 µM | – | – | 31.3 µM | 0.264 µM
13 | Cc1c(Cl)cccc1NC(=O)c1sc2nc3c(cc2c1N)CCCCCC3 | > 50 µM | > 50 µM | 19.8 µM | > 50 µM | > 50 µM | 3.5 µM | 10.5 µM | 26.5 µM | – | 0.465 µM | 0.195 µM | 0.326 µM | 0.426 µM | 0.187 µM | 0.177 µM | 0.279 µM | – | 0.101 µM | > 50 µM | 0.133 µM
14 | CC(C)(C)C(=O)C(c1ccc(-c2cscn2)cc1)c1ccc(-c2cscn2)cc1 | > 100 µM | > 100 µM | 40.6 µM | > 100 µM | > 100 µM | 54.7 µM | > 100 µM | 65.3 µM | 25.6 µM | – | – | – | – | – | – | – | – | – | – | –
15 | O=C(c1ccc(NCN2C(=O)CCC2=O)cc1)c1ccc(NCN2C(=O)CCC2=O)cc1 | > 100 µM | > 100 µM | > 100 µM | > 100 µM | > 100 µM | > 100 µM | > 100 µM | – | – | – | – | – | – | – | – | – | – | – | – | –
16 | O=C(N/N=C/c1cc(Br)cc(Br)c1[O-])c1ccccc1O.O=C(N/N=C/c1cc(Br)cc(Br)c1[O-])c1ccccc1O.[Mn+2] | 15.1 µM | 7.36 µM | 25.9 µM | 22.7 µM | 13.9 µM | 28.4 µM | 19.2 µM | 33.8 µM | 15.5 µM | – | – | – | – | – | – | – | – | – | – | –
